Earlier results in US11167277B2, “Cu(I)-catalyzed azide-alkyne cycloadditions (CuAAC) ligands and methods for carrying out Cu(I)-catalyzed azide-alkyne cycloaddition reactions” (UNIVERSITY OF PITTSBURGH-OF THE COMMONWEALTH SYSTEM OF …, priority 2014, dated 2021).

System: Zebrafish embryos
Details: co-treatment with 1 mM CuSO4, 1.5 mM sodium ascorbate and 0.1 mM TBTA; toxicity attributed to copper(I)

In the case of c1ccc(Cn2cc(CN(Cc3cn(Cc4ccccc4)nn3)Cc3cn(Cc4ccccc4)nn3)nn2)cc1 [TBTA], the “time beyond which Zebrafish embryos do not survive” value is given as no more than 15 min.
